From patent US11298318B2, “One-step method for production of ultra-small lipid structures” (FOUNTAIN TECHNOLOGIES INTERNATIONAL, LLC, priority 2015, dated 2022)

Experiment: Pharmacokinetics of EGCG after oral gavage to rats
Format: in vivo
Details: 100 mg/kg
Procedure: Groups of 10 200-g male rats were administered EGCG by oral gavage, in the form of the USLS prepared as in Example 3 (2.1 ml; 100 mg/kg body weight) or as an identical preparation of EGCG without USLS. Blood samples were collected at 5, 10, 30, 60, 120, and 480 minutes post administration. […] Within 5 minutes after oral administration, the USLS-sequestered compound produced a plasma concentration of 600 ng/ml and a peak plasma concentration of 605 ng/ml at 10 minutes post administration. The EGCG administered without sequestration in USLS produced a peak plasma concentration of only 150 ng/ml at 5 minutes post administration.
The pharmacokinetic parameters Cmax (maximum serum concentration), Tmax (time maximum serum concentration is reached), AUC (area under the curve), and Relative Bioavailability were determined from the plasma data and are presented in Table 1, below.

O=C(O[C@@H]1Cc2c(O)cc(O)cc2O[C@@H]1c1cc(O)c(O)c(O)c1)c1cc(O)c(O)c(O)c1 [EGCG control, Epigallocatechin gallate]
time of peak plasma concentration post administration: 5 min | peak plasma concentration of EGCG (FIG. 4): 150 ng/mL | AUC (0-240 min) (Table 1): 14,261 | Cmax (maximum serum concentration) (Table 1): 116.57 | Tmax (time maximum serum concentration is reached) (Table 1): 5
